For orientation: GI50 means the concentration at which growth is held to half of that of the control. By TGI is commonly meant the concentration at which net growth stops. A low value points to more potent growth arrest. Usually inhibition stands for the share of the control response that was lost under treatment.

Results on four molecules are retold here after patent US20040092581A1, “Ratjadone derivatives for inhibiting cell growth” (priority 2001, published 2004).

In brackets after ≈: the same amount, converted by molar mass. Where two headings read alike, the source gives them in different places. Marks after values point to notes of the source that are not given here.

In one test the test system is Glioblastoma cells. The test can be described thus: Influence on the cell cycle, continuous flow cytometry, glioblastoma cells. It counts as cell-based. The conditions noted are these: 20 nM, 48 h incubation. The method, then: (§1) Glioblastoma cells and HepG2 cells (liver carcinoma cells) were in each case incubated for 48 h without the substance 1 according to the invention and in nutrient medium containing various concentrations of the substance 1 according to the invention. The cells were harvested and measured by continuous flow cytometry.
(§2) Bookmark not defined. to […]. for glioblastoma cells and […]. to […]. for HepG2 cells, in each case in plot form. In each case the DNA content is indicated on the X axis and the cell count is indicated on the Y axis. Bookmark not defined. to […]. were obtained in each case with 0 nM, 10 nM and 20 nM, respectively, of the preferred substance 1 according to the invention in the culture medium; the results shown in Figures […]. to […]. were obtained with 0 nM, 2 nM and 5 nM, respectively, of the preferred substance 1 according to the invention in the culture medium.
(§3) It can be seen that for both cell lines tested the absolute number and the number of cells in the S and in the G2 phase decreases with increasing concentration of substance 1. […] The preferred substance 1 according to the invention thus arrests the cell cycle in the G1 phase at the dosage suitable for the particular cell type.
On the technique in general: A flow cytometer gives signals particle by particle.

In test [1] the test system is HepG2 cells (liver carcinoma cells). The test can be described thus: Influence on the cell cycle, continuous flow cytometry, HepG2 cells. It counts as cell-based. Particulars: 5 nM, 48 h incubation. As for the experimental part: as §1, §2, §3
Test [2] concerns MCF 7 (mammary carcinoma). Kind of test: cells. It counts as cell-based. Particulars: for CC50 / GI50: Homo sapiens; for CC50: read-out: LC50; for TGI: complete inhibition of cell growth. As for the experimental part: (§4) The tables below show the influence of the substances 1, 36 and 37 according to the invention on the growth of tumor cells, specifically the growth of the cell lines HM02 (gastroadenocarcinoma), HepG2 (liver carcinoma) and MCF 7 (mammary carcinoma).
(§5) The studies were carried out in accordance with the NCI guidelines (Grever et al., Seminars in Oncology 19 (1992), 622-638). The cells were cultured in 96-well microtitre plates in RPMI 1640 medium with 10% FCS (foetal calf serum). 24 h after dissemination of the cells, the substances 1 and 36 according to the invention dissolved in methanol were added and the cells were incubated for a further 48 h. The cell count was then determined.
(§6) GI50: denotes the concentration that effects a semi-maximum inhibition of the cell growth
(§7) TGI: denotes the concentration that effects complete inhibition of the cell growth

A further test has as its system HepG2 (liver carcinoma). Kind of test: cells. Format: cell-based. The conditions noted are these: for TGI: complete inhibition of cell growth; for CC50 / GI50 / inhibition at 0.5 µg/mL: Homo sapiens; for CC50: read-out: LC50; for inhibition at 0.5 µg/mL: HEP-G2, at 500 ng/ml, read-out: growth inhibition. As for the experimental part:
as §4, §5, §6, §7

For test [3], the system named is HM02 (gastroadenocarcinoma). The test can be described thus: cells. Particulars: for CC50: read-out: LC50; for TGI: complete inhibition of cell growth. Format: cell-based. As for the experimental part:
as §4, §5, §6, §7

The test system of test [4] is glioblastoma cells growing on a conventional carrier. Kind of test: Shape and carrier adhesion of glioblastoma cells. Format: cell-based. The conditions noted are these: 50 nM. An excerpt: In addition, the shape of glioblastoma cells growing on a conventional carrier as a function of the concentration of the substance 1 according to the invention was investigated (no figure). In the absence of substance 1 the cells have their typical dendritic shape and adhere to (sic) the carrier surface.

Another test relates to HeLa cells (KB3.1). The conditions noted are these: cited from earlier work.
The mark [5] stands for this setting: MCF7, MCF 7, 48 h incubation, semi-maximum inhibition of cell growth, read-out: GI50.

As to `C/C=C/[C@H]1O[C@@H]([C@@H](O)/C=C/C=C(\C)C[C@@H](C)/C=C(C)\C=C\[C@H]2CC=CC(=O)O2)C[C@H](O)[C@H]1C` [Substance 1], the “cell cycle phase distribution (G1 arrest)” value (in the test on Glioblastoma cells; in test [1]) was “virtually all cells tested are in the G1 phase” in each case. The CC50 in test [2] (MCF7, 48 h) was less than 0.5 µg/mL; in the test on HepG2 (liver carcinoma) (HepG2, 48 h), more than 0.5 µg/mL; in test [3] (HM02, 48 h), 0.25 µg/mL (≈ 0.547 µM). The GI50 in test [2] (setting [5]) is 0.016 µg/mL (≈ 0.035 µM); in the test on HepG2 (liver carcinoma) (HepG2, HEP-G2, 48 h incubation, semi-maximum inhibition of cell growth, read-out: GI50) it was 0.013 µg/mL (≈ 0.0285 µM); in test [3] (HM02, 48 h incubation, semi-maximum inhibition of cell growth, read-out: GI50) it was less than 5 ng/mL. Also, the TGI in test [2] (MCF 7, 48 h incubation) was >500^b ng/ml; in the test on HepG2 (liver carcinoma) (HEP-G2, 48 h incubation), 500^b ng/ml; in test [3] (HM02, 48 h incubation) it was 24 ng/mL (≈ 0.0526 µM). In the test on HepG2 (liver carcinoma) (HepG2), the inhibition at 0.5 µg/mL is 80%. Moreover, the “cell shape and adhesion to the carrier surface” value in test [4] is “the cells have largely lost their dendritic shape and detach easily from the carrier surface”.

On to `C/C=C/[C@@H]1O[C@H]([C@H](O)/C=C/C=C(\C)C[C@@H](C)/C=C(C)\C=C\[C@H]2CC=CC(=O)O2)C[C@@H](O)[C@@H]1C` [Ratjadon, ratjadon], for which the “IC50, inhibition of growth of HeLa cells (KB3.1)” value in the test with HeLa cells (KB3.1) is 50 pg/mL.

Take `C/C=C/[C@H]1O[C@@H]([C@@H](O)/C=C/C=C(\C)C[C@@H](C)/C=C(C)\C=C\[C@@H]2CC=CC(=O)O2)C[C@H](O)[C@H]1C` [Substance 37]: the CC50 in test [2] (MCF7, 48 h) was more than 0.1 µg/mL; with HepG2 (liver carcinoma) (HepG2, 48 h), more than 0.1 µg/mL; in test [3] (HM02, 48 h), more than 0.1 µg/mL. The GI50 was determined as 0.025 µg/mL (≈ 0.0547 µM) in test [2] (setting [5]); 0.085 µg/mL (≈ 0.186 µM) in the test on HepG2 (liver carcinoma) (HepG2, 48 h); 17 ng/mL (≈ 0.0372 µM) in test [3] (HM02, 48 h). Also, the TGI in test [2] (MCF 7, 48 h incubation) is more than 100 ng/mL; in the test on HepG2 (liver carcinoma) (HEP-G2, 48 h incubation), more than 100 ng/mL; in test [3] (HM02, 48 h incubation), >100^a ng/ml. For the same molecule, in test [3] (HM02, read-out: growth inhibition), the inhibition at 0.1 µg/mL turned out to be 90%.

Turning to `CC(=C/[C@H](C)C/C(C)=C/C=C/[C@H](O)[C@H]1CCCCO1)/C=C/[C@H]1CC=CC(=O)O1` [Substance 36], the GI50 in test [2] (MCF7, 48 h) was 0.1 µg/mL (≈ 0.259 µM); with HepG2 (liver carcinoma) (HepG2, 48 h) it was 0.058 µg/mL (≈ 0.15 µM); in test [3] (HM02, 48 h), 5 ng/mL (≈ 0.0129 µM). Moreover, the CC50 in test [2] (MCF7, 48 h) is more than 0.5 µg/mL; in the test with HepG2 (liver carcinoma) (HepG2, 48 h), more than 0.5 µg/mL; in test [3] (HM02, 48 h), more than 0.5 µg/mL. Further, the TGI in test [2] (MCF 7, 48 h incubation) is >500^c ng/ml; with HepG2 (liver carcinoma) (HEP-G2, 48 h incubation), >500^c ng/ml; in test [3] (HM02, 48 h incubation), 140 ng/mL (≈ 0.362 µM). The inhibition at 0.5 µg/mL with HepG2 (liver carcinoma) (HepG2) was 60%.
